In patent publication US12214076B2, “Drug delivery vehicles for atherosclerosis nanomedicine” (Northwestern University, priority 2019, dated 2025):
Peptide text beside a SMILES is read from it. * marks the point of attachment. Palmitoyl = CCCCCCCCCCCCCCCC(=O)*

Experiments:
[1] = test system: J774.2 murine macrophages; assay: Nitric oxide production of stimulated macrophages; type: cell-based, mouse; conditions: 24 hours, LPS and stimulated, 32 μM Ac2-26 or epitope equivalent
Experimental: Macrophage culture and characterization: J774.2 murine macrophages (Sigma-Aldrich) were expanded at 4-9×10^5 cells/mL in growth media consisting of Dulbecco's Modified Eagle's Medium (Sigma-Aldrich) containing 4.5 g/L glucose, 2 mM L-glutamine, 10% v/v FBS, 100 U/m penicillin, and 100 μg/mL streptomycin. Cells were passaged using Accutase™ (StemCell Technologies) and used at passage 6-9 for all experiments. The cells were detached with Accutase™ and gentle scraping, counted, and re-suspended in flow cytometry buffer containing 2% w/v bovine serum albumin (BSA, heat shock fraction free of proteases, globulin, and fatty acids, Sigma-Aldrich) and 0.1% w/v sodium azide (Sigma-Aldrich). To minimize non-specific binding of immunoglobin to Fc receptors, macrophages were incubated with anti-mouse CD16/32 antibody (TrueStain FcX™, Biolegend) at 1 μg/1×10^5 cells for 10 minutes at 4° C. APC anti-mouse CD11b antibody or APC Armenian hamster IgG isotype control antibody (Biolegend) were added at 0.4 μg/1×10^5 cells, FPR2 antibody (Novus Biologics) was added at […], and all samples were incubated for 30 minutes at 4° C. The cells were washed once with flow cytometry buffer by centrifugation at 300×g. FPR2 samples were further treated with goat anti-rabbit Alexa Fluor 488 secondary antibody (Invitrogen) at 2 μg/1×10^5 cells for 20 minutes at 4° C., followed by a wash step. Unstained macrophages served as controls and contained 7AAD viability staining solution (Biolegend) at 0.1 μg/1×10^5. All samples were suspended in 4% paraformaldehyde (Electron Microscopy Sciences) in PBS until analysis. […] All samples were analyzed using Attune NxT Acoustic Focusing Cytometer (Thermo Fisher) with at least 2000 events counted per condition.
Therapeutic effects of ApoA1-Ac2-26 PAs: 10% ROS- and MMP-Ac2-26 PAs, as well as Ac2-26 peptide were added together with 10 μg/mL LPS at 32 μM Ac2-26 to macrophages. […] Concerning the quantification of NO, the reducing solution made of KI in acetic acid and water provides an excess of I− that reacts with nitrite yielding ·NO. […]

[2] = TEM characterization of PA nanofibers for diameter and length (Example 3); type: physicochemical; conditions: 30 measurements from three images
Experimental: Samples at 1 mM in PBS were prepared for TEM by plating on copper supports covered with thin carbon foil 400-mesh that were treated with glow discharge. […] Due to the overlapping fibers, automated tools including FiberApp could not be used to analyze the nanofibers. Instead, the TEM images were analyzed manually for nanofiber diameter and length using ImageJ software. Cryogenic TEM of samples was also performed using a JEOL 1230 at 100 kV accelerating voltage and Gatan 831 CCD camera. […] Samples were prepared at 1 mM in PBS blotted once for 3 seconds before plunging into liquid ethane using a Vitrobot Mark III (FEI) vitrification robot.

For “10% MMP-Ac2-26 PA: co-assembly of 10 mol % MMP-Ac2-26 PA, 50 mol % E2 filler PA, and 40% ApoA1 PA (VVAAEEGGGPQGIWGQGKAMVSEFLKQAWFIENEEQEYVQTVK)”, the “macrophage activation, nitric oxide production relative to the stimulated control” value [1] was “significantly reduced”.

In the case of `CCCCCCCCCCCCCCCC(=O)N[C@H](C(=O)N[C@H](C(=O)N[C@@H](C)C(=O)N[C@@H](C)C(=O)N[C@@H](CCC(=O)O)C(=O)N[C@@H](CCC(=O)O)C(=O)NCC(=O)N[C@@H](CC(=O)O)C(=O)N[C@@H](Cc1c[nH]c2ccccc12)C(=O)N[C@@H](Cc1ccccc1)C(=O)N[C@@H](CCCCN)C(=O)N[C@@H](C)C(=O)N[C@@H](Cc1ccccc1)C(=O)N[C@@H](Cc1ccc(O)cc1)C(=O)N[C@@H](CC(=O)O)C(=O)N[C@@H](CCCCN)C(=O)N[C@H](C(=O)N[C@@H](C)C(=O)N[C@@H](CCC(=O)O)C(=O)N[C@@H](CCCCN)C(=O)N[C@@H](Cc1ccccc1)C(=O)N[C@@H](CCCCN)C(=O)N[C@@H](CCC(=O)O)C(=O)N[C@@H](C)C(=O)N[C@@H](Cc1ccccc1)C(N)=O)C(C)C)C(C)C)C(C)C` [ApoA1 PA] (Palmitoyl-VVAAEEGDWFKAFYDKVAEKFKEAF-NH2), the “macrophage activation, nitric oxide production relative to the stimulated control” value [1] is reported as “did not cause significant decreases in nitric oxide production”, the “Diameter (nm) Average” value [2] is reported as 9.6 nm and the “Diameter (nm) Median” value [2] is reported as 9.5 nm. The “Length (nm) Average” value [2] was 626.9 nm, the “Length (nm) Median” value [2] was 615.9 nm and the “Diameter (nm) Average” value ([2]; listed as ApoA1) was 9.6±1.7 nm. For the same molecule, the “Length (nm) Median” value ([2]; listed as ApoA1) was 616 nm.
